Converted amounts (≈) assume the structure as drawn.
Key:
[1] = system: A2780 ovarian carcinoma cells; assay: In Vitro Cell Proliferation Assay (A2780); type: cell-based; conditions: Homo sapiens, 72 hours exposure, CellTiterGlo
Protocol: (§1) In Vitro Cell Proliferation Assay
(§2) To evaluate the antiproliferative activity of a compound of formula (I) the following human cell lines were used: A2780 ovarian and MCF-7 breast carcinoma; TT and MZ-CRC-1 medullary thyroid carcinoma, harboring a mutated RET-C634W and RET-M918T receptor respectively, LC-2/ad Non Small Cell Lung Carcinoma, expressing the CCDC6-RET fusion gene product. Exponentially growing cells were seeded and incubated at 37° C. in a humidified 5% C02 atmosphere using appropriate medium supplemented with 10% Fetal Bovine Serum. 24 hours following cell plating, scalar doses of the compounds dissolved in 0.1% DMSO were added to the medium and cells were exposed to drugs for either 72 hours (MCF-7 and A2780) or 144 hours (TT, MZ-CRC-1 and LC-2/ad), according to their different proliferation rate. At the end of treatment, cell proliferation was determined by an intracellular ATP monitoring system (CellTiterGlo—Promega), following manufacturer's instructions, and using an Envision instrument (PerkinElmer) as reader. Data obtained from compound versus vehicle treated cells were compared using Assay Explorer (Symyx Technologies Inc) software. IC50 values were calculated using sigmoidal interpolation curve fitting.

[2] = system: MCF-7 breast carcinoma cells; assay: In Vitro Cell Proliferation Assay (MCF-7); type: cell-based; conditions: Homo sapiens, MCF7; 72 hours exposure, CellTiterGlo
Protocol: as §1, §2

[3] = system: TT medullary thyroid carcinoma cells, harboring a mutated RET-C634W receptor; assay: In Vitro Cell Proliferation Assay (TT); type: cell-based; conditions: Homo sapiens; 144 hours exposure, CellTiterGlo
Protocol: as §1, §2

[4] = High-Throughput Solubility Assay; type: physicochemical; conditions: for solubility at 24 h: kinetic from dmso stock, pH 7, aqueous potassium phosphate buffer, nominal 200 μM, 24 h at room temperature
Protocol: High-Throughput Solubility Assay
A nominal 200 μM suspensions/solutions of a compound of formula (I) in aqueous potassium phosphate buffer at pH=7 and aqueous citric acid buffer at pH=3 were prepared on a “Multiscreen-HTS”, 0.2 μm filter plate (Millipore, Billerica, Mass.). These solutions were stirred for 10 min and stored for 24 h at room temperature to pre-saturate the membrane filter and to reach a “pseudo-thermodynamic solubility”. Then the plate was put on a 500 μL 96 multiwell plate containing 200 μL of acetonitrile in each well and centrifuged at 2000 rpm for 5 minutes. The so obtained solutions were then analyzed simultaneously by HPLC-UV with standard solutions for quantification.

[5] = system: MZ-CRC-1 medullary thyroid carcinoma cells, harboring a mutated RET-M918T receptor; assay: In Vitro Cell Proliferation Assay (MZ-CRC-1); type: cell-based; conditions: Homo sapiens, 144 hours exposure, CellTiterGlo
Protocol: as §1, §2

[6] = system: LC-2/ad Non Small Cell Lung Carcinoma cells, expressing the CCDC6-RET fusion gene product; assay: In Vitro Cell Proliferation Assay (LC-2/ad); type: cell-based; conditions: Homo sapiens, 144 hours exposure, CellTiterGlo
Protocol: as §1, §2

| SMILES | IC50 [1] [nM] | IC50 [2] [nM] | IC50 [3] [µM] | solubility at 24 h [4] [µM] | IC50 [5] [µM] | IC50 [6] [µM] | solubility (in words) ([4]; neutral, physiological pH (pH 7), compared with the reference compound) |
| --- | --- | --- | --- | --- | --- | --- | --- |
| CN1CCCN(Cc2ccc(NC(=O)Cc3cccc(C#Cc4cnc(N)nc4-c4cc5c(n4C)CCNC5=O)c3)cc2C(F)(F)F)CC1 [Cmpd 149, 2-{3-[2-Amino-4-(1-methyl-4-oxo-4,5,6,7-tetrahydro-1H-pyrrolo[3,2-c]pyridin-2-yl)-pyrimidin-5-ylethynyl]-phenyl}-N-[4-(4-methyl-[1,4]diazepan-1-ylmethyl)-3-trifluoromethyl-phenyl]-acetamide] | 1910 | 3720 | 0.013 | 30.4 (≈ 20.4 µg/mL) |  |  |  |
| CN(C)[C@H]1CCN(Cc2ccc(NC(=O)Cc3cccc(C#Cc4cnc(N)nc4-c4cc5c(n4C)CCNC5=O)c3)cc2C(F)(F)F)C1 [Cmpd 150, 2-{3-[2-Amino-4-(1-methyl-4-oxo-4,5,6,7-tetrahydro-1H-pyrrolo[3,2-c]pyridin-2-yl)-pyrimidin-5-ylethynyl]-phenyl}-N-[4-((S)-3-dimethylamino-pyrrolidin-1-ylmethyl)-3-trifluoromethyl-phenyl]-acetamide] | 1930 | 5640 | 0.006 | 40.2 (≈ 27 µg/mL) |  |  |  |
| CCCN1CCN(Cc2ccc(NC(=O)Cc3cccc(C#Cc4cnc(N)nc4-c4cc5c(n4C)CCNC5=O)c3)cc2C(F)(F)F)CC1 [Cmpd 164, 2-{3-[2-Amino-4-(1-methyl-4-oxo-4,5,6,7-tetrahydro-1H-pyrrolo[3,2-c]pyridin-2-yl)-pyrimidin-5-ylethynyl]-phenyl}-N-[4-(4-propyl-piperazin-1-ylmethyl)-3-trifluoromethyl-phenyl]-acetamide] | 2020 | 5620 | 0.002 | 8.9 (≈ 6.09 µg/mL) |  |  |  |
| CCN1CCN(Cc2ccc(NC(=O)Nc3cccc(C#Cc4cnccc4-c4cc5c(n4C)CCNC5=O)c3)cc2C(F)(F)F)CC1 [Cmpd 38, 1-[4-(4-Ethyl-piperazin-1-ylmethyl)-3-trifluoromethyl-phenyl]-3-{3-[4-(1-methyl-4-oxo-4,5,6,7-tetrahydro-1H-pyrrolo[3,2-c]pyridin-2-yl)-pyridin-3-ylethynyl]-phenyl}-urea] | 1950 | 5040 | 0.038 | 10.8 (≈ 7.08 µg/mL) |  |  |  |
| CCN1CCN(Cc2ccc(NC(=O)N3CCc4ccc(C#Cc5cnc(N)nc5-c5cc6c(n5C)CCNC6=O)cc43)cc2C(F)(F)F)CC1 [Cmpd 44, 6-[2-Amino-4-(1-methyl-4-oxo-4,5,6,7-tetrahydro-1H-pyrrolo[3,2-c]pyridin-2-yl)-pyrimidin-5-ylethynyl]-2,3-dihydro-indole-1-carboxylic acid [4-(4-ethyl-piperazin-1-ylmethyl)-3-trifluoromethyl-phenyl]-amide] | 1720 | 3480 | 0.069 | 4.7 (≈ 3.28 µg/mL) | 0.231 |  |  |
| CCN1CCN(Cc2ccc(NC(=O)Cc3ccc(C#Cc4cnc(N)nc4-c4cc5c(n4C)CCNC5=O)s3)cc2C(F)(F)F)CC1 [Cmpd 129, 2-{5-[2-Amino-4-(1-methyl-4-oxo-4,5,6,7-tetrahydro-1H-pyrrolo[3,2-c]pyridin-2-yl)-pyrimidin-5-ylethynyl]-thiophen-2-yl}-N-[4-(4-ethyl-piperazin-1-ylmethyl)-3-trifluoromethyl-phenyl]-acetamide] | 105 | 8180 | 0.002 | 26.4 (≈ 17.9 µg/mL) |  |  |  |
| CCN1CCN(Cc2cc(NC(=O)Nc3cccc(C#Cc4cnc(N)nc4-c4cc5c(n4C)CCNC5=O)c3)ccc2C(F)(F)F)CC1 [Cmpd 22, 1-{3-[2-Amino-4-(1-methyl-4-oxo-4,5,6,7-tetrahydro-1H-pyrrolo[3,2-c]pyridin-2-yl)-pyrimidin-5-ylethynyl]-phenyl}-3-[3-(4-ethyl-piperazin-1-ylmethyl)-4-trifluoromethyl-phenyl]-urea] | 1150 | 2810 | 0.007 | 5.8 (≈ 3.9 µg/mL) |  |  |  |
| CCN1CCN(Cc2ccc(NC(=O)Cc3cncc(C#Cc4cnc(N)nc4-c4cc5c(n4C)CCNC5=O)c3)cc2C(F)(F)F)CC1 [Cmpd 122, 2-{5-[2-Amino-4-(1-methyl-4-oxo-4,5,6,7-tetrahydro-1H-pyrrolo[3,2-c]pyridin-2-yl)-pyrimidin-5-ylethynyl]-pyridin-3-yl}-N-[4-(4-ethyl-piperazin-1-ylmethyl)-3-trifluoromethyl-phenyl]-acetamide] | 704 | 2690 | 0.001 | 9.4 (≈ 6.31 µg/mL) |  |  |  |
| Cn1nc(C(C)(C)C)cc1NC(=O)Cc1cccc(C#Cc2cnc(N)nc2-c2cc3c(n2C)CCNC3=O)c1 [Cmpd 105, 2-{3-[2-Amino-4-(1-methyl-4-oxo-4,5,6,7-tetrahydro-1H-pyrrolo[3,2-c]pyridin-2-yl)-pyrimidin-5-ylethynyl]-phenyl}-N-(5-tert-butyl-2-methyl-2H-pyrazol-3-yl)-acetamide] | 2740 | > 10000 | 0.025 | 15.3 (≈ 8.21 µg/mL) |  |  |  |
| CCCN1CCN(Cc2ccc(NC(=O)Cc3cccc(C#Cc4cnc(NC)nc4-c4cc5c(n4C)CCNC5=O)c3)cc2C(F)(F)F)CC1 [Cmpd 179, 2-{3-[2-Methylamino-4-(1-methyl-4-oxo-4,5,6,7-tetrahydro-1H-pyrrolo[3,2-c]pyridin-2-yl)-pyrimidin-5-ylethynyl]-phenyl}-N-[4-(4-propyl-piperazin-1-ylmethyl)-3-trifluoromethyl-phenyl]-acetamide] | 3240 |  | 0.017 | 1.2 (≈ 0.839 µg/mL) | 0.038 |  |  |
| CCN1CCN(Cc2ccc(NC(=O)Nc3ccc(C#Cc4cnc(N)nc4-c4cc5c(n4C)CCNC5=O)cc3)cc2C(F)(F)F)CC1 [Cmpd 30, 1-{4-[2-Amino-4-(1-methyl-4-oxo-4,5,6,7-tetrahydro-1H-pyrrolo[3,2-c]pyridin-2-yl)-pyrimidin-5-ylethynyl]-phenyl}-3-[4-(4-ethyl-piperazin-1-ylmethyl)-3-trifluoromethyl-phenyl]-urea] | 1000 | 2190 | 0.008 | 1.7 (≈ 1.14 µg/mL) |  |  |  |
| CCNc1ncc(C#Cc2cccc(CC(=O)Nc3ccc(CN4CCN(C)CC4)c(C(F)(F)F)c3)c2)c(-c2cc3c(n2C)CCNC3=O)n1 [Cmpd 193, 2-{3-[2-Ethylamino-4-(1-methyl-4-oxo-4,5,6,7-tetrahydro-1H-pyrrolo[3,2-c]pyridin-2-yl)-pyrimidin-5-ylethynyl]-phenyl}-N-[4-(4-methyl-piperazin-1-ylmethyl)-3-trifluoromethyl-phenyl]-acetamide] | 910 |  | 0.016 | < 1 | 0.039 | 0.015 |  |
| CCN1CCN(Cc2ccc(NC(=O)Cc3ccc(C#Cc4cnc(N)nc4-c4cc5c(n4C)CCNC5=O)cc3)cc2C(F)(F)F)CC1 [Cmpd 123, 2-{4-[2-Amino-4-(1-methyl-4-oxo-4,5,6,7-tetrahydro-1H-pyrrolo[3,2-c]pyridin-2-yl)-pyrimidin-5-ylethynyl]-phenyl}-N-[4-(4-ethyl-piperazin-1-ylmethyl)-3-trifluoromethyl-phenyl]-acetamide] | 3900 | > 10000 | 0.06 | 25.1 (≈ 16.8 µg/mL) |  |  |  |
| Cn1c(-c2nc(N)ncc2C#Cc2cccc(NC(=O)Nc3ccc(C(F)(F)F)cc3)c2)cc2c1CCNC2=O [Reference cmpd, 1-{3-[2-Amino-4-(1-methyl-4-oxo-4,5,6,7-tetrahydro-1H-pyrrolo[3,2-c]pyridin-2-yl)-pyrimidin-5-ylethynyl]-phenyl}-3-(4-trifluoromethyl-phenyl)-urea, reference compound] | 2750 | 4540 | 0.041 | < 1 | 0.317 |  | lack of solubility |
| CCN1CCN(Cc2cc(NC(=O)Nc3cccc(C#Cc4cnc(N)nc4-c4cc5c(n4C)CCNC5=O)c3)cc(C(F)(F)F)c2)CC1 [Cmpd 29, 1-{3-[2-Amino-4-(1-methyl-4-oxo-4,5,6,7-tetrahydro-1H-pyrrolo[3,2-c]pyridin-2-yl)-pyrimidin-5-ylethynyl]-phenyl}-3-[3-(4-ethyl-piperazin-1-ylmethyl)-5-trifluoromethyl-phenyl]-urea] | 2230 | 9160 | 0.085 | 7.4 (≈ 4.97 µg/mL) |  |  |  |
